For orientation: EC50 means the concentration that produces a half-maximal response. The low end stands for an effect from little substance, the high end for a need for much substance. For orientation: CC50 means the concentration at which the toxic effect on the cells reaches its halfway point. High values mean better tolerance by the cells, low ones harm at low concentration. What is called IC50 is the midpoint of a concentration-inhibition curve. Higher therefore signals lower potency. Usually inhibition stands for the relative decrease from the control value, in per cent. Lower therefore signals a response near the control.

SMILES strings stand for the structures. Read-outs that look alike come from different tables or passages of the source.

This is an account of results in paper PMC7106487, “Design, Synthesis and Discovery of N,N’‐Carbazoyl‐aryl‐urea Inhibitors of Zika NS5 Methyltransferase and Virus Replication” (Chemmedchem, 2020).

One data set has as its system ZIKV. Description: CPE-reduction assay, inhibition of ZIKV replication. Set-up: species or system Zika virus (ZIKV). The settings on record: cell-based CPE-reduction assay; for EC50: Zika virus. As to the method: (§1) Finally, the ability of all the derivatives synthesized in this work to inhibit ZIKV replication was assessed. […]
The next data set deals with host cell. Put plainly: in vitro. Type of data set: cell-based. As to the method: as §1
The nature of data set [1]: in vitro. The settings on record: ZIKV CC50. Type of data set: cell-based. As to the method: as §1
A further data set concerns the target T1, ZIKV NS5-MTase (Zika virus, UniProt Q32ZE1).
T1 construct: made in house
Description: MTase inhibition assay ([3H]-SAM, GpppAC4 RNA substrate, DEAE filter binding). Type of data set: biochemical. The settings on record: for inhibition at 50 µM / inhibition of ZIKV NS5-MTase: initial screen, compounds at 50 μM, 30 min at 30 °C. As to the method: (§2) The library of compounds 9, 11, 12, 14, 15, 16 and 21 was then assessed on different purified recombinant MTases. All compounds were initially screened at 50 μM against ZIKV NS5‐MTase and hRNMT as well as against DENV NS5‐MTase due to its similarity with ZIKV protein. The SAM mimetic sinefungin was included as control.
(§3) The MTases were incubated with radiolabeled [^3H]‐SAM together with the GpppAC4 RNA substrate and the different compounds at 50 μM. The reaction was stopped after 30 mins at 30 °C. The sample products were filtered on a DEAE membrane to remove non‐incorporated [^3H]‐SAM, and radioactivity transferred on the RNA substrate was counted. […]
(§4) DENV, ZIKV and hRNMT MTase production and purification
(§5) The coding sequence of the ZIKV MTase domain was cloned in pDest 14 (Invitrogen) expression vector as recently described,9 and the DENV and ZIKV MTase were produced and purified following the protocols applied for the DENV MTase.10 The human N7-MTase (hRNMT) was cloned in pDest 14 (Invitrogen) expression vector as described.11 The hRNMT was produced in e.coli Rosetta (DE3) cells transformed with pDest14/6His -hRNMT and purified on immobilized-metal-affinity chromatography (IMAC, Amersham Biosciences) followed by hearine, as described previously.11
(§6) The MTase activity of the different recombinant proteins was assayed upon pre -incubation of the MTase (5 min) with a selected fragment and the reactions were started by addition of a […]
(§7) small capped RNA substrate GpppAC4 with the [3H]AdoMet.12 The MTase activity assay was performed in 20 µl samples containing 40 mM Tris-HCl pH 7.5, 5 mM DTT (except for hRNMT), 10 µM AdoMet (0.2-2 µCi [3H]SAM), 1 µM of DENV or ZIKV MTase or 200 nM of hRNMT, 1 µM GpppAC4 in presence of 1µl of compounds solubilized in DMSO 100%.
(§8) Reactions were incubated at 30°C for 30 min and stopped by 20-fold dilution in an ice-cold 100 µM AdoHcy (SAH) solution. Samples were then transferred onto a DEAE membrane (DEAE Filtermat; Wallac) by using a Filtermat Harvester (Packard Instruments) washed with 0.01 M ammonium formate (pH 8.0), water and 95 % ethanol, and the radioactivity transferred onto RNA was measured using a Wallac 1450 MicroBeta Trilux Liquid Scintillation Counter.
(§9) The inhibitor concentration at 50% activity (IC50) was determined by performing the MTase assays in presence of serial dilution of the inhibitor in DMSO (final concentration in the assay 5%). All data points were measured in duplicate. The IC50 values were determined by curve fitting with Prism software using a logistic dose-response function: % activity = 100/(1+[I]/IC50)b, where b corresponds to the slope factor and [I] to inhibitor concentration. […]
(§10) Spectrometer using low-resolution ESI or high-resolution nano ESI techniques. The purity of the compounds was assessed by reverse -phase liquid chromatography coupled with a mass spectrometer (Agilent series 1100 LC/MSD) with a UV detector at λ = 254 nm and an electrospray ionization source (ESI). HPLC analysis was carried out using a Perkin -Elmer 1100 HPLC system coupled with UV/Vis set to 254 nm. Mass spectra were acquired in positive mode scanning over the mass range of 50–1500. The following ion source parameters were used: drying gas flow, […]; nebulize pressure, 40 psig; and drying gas temperature, 350 […]
(§11) performed using commercially available pre-coated plates and visualized with UV light at 254 nm; KMnO4 was used to reveal the products. Flash column chromatography was carried out using Sigma Aldrich silica gel particle size, 40-63 µm particle size 60 Å. All reactions were conducted under a nitrogen atmosphere in oven-dried glassware unless stated otherwise. All solvents and commercially available reagents were used as received.

A further data set deals with T2, hRNMT (human N7-MTase) (Homo sapiens, UniProt O43148).
T2 construct: 6His (N); made in house; host or cells: E. coli Rosetta (DE3)
T2 sequence (O43148 whole entry): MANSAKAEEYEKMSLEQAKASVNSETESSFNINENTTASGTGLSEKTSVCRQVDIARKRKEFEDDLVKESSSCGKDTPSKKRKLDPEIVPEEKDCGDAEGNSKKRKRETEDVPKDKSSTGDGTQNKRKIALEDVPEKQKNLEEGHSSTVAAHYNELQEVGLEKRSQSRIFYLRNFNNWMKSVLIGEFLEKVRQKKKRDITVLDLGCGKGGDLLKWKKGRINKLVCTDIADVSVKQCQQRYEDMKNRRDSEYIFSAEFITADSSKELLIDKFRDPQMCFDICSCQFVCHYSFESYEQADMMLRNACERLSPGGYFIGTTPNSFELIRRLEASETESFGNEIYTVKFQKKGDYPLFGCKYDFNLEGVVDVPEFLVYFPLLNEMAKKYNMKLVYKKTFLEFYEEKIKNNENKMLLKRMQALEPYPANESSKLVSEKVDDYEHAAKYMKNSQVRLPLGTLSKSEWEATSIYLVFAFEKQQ
The data set is described as above. Format: biochemical. Particulars: dose-response, 200 nM hRNMT, 10 µM AdoMet, 30 min at 30 °C. On the procedure: as §2, §3, §4, §5, §6, §7, §8, §9, §10, §11

Data set [2] is described as follows: in vitro. Type of data set: cell-based.
The next data set has as its system DENV. Put plainly: Cell-based antiviral activity against DENV. The settings on record: Dengue virus; cell-based assay.
The target of a further data set is DENV NS5-MTase (Dengue virus type 3, UniProt P27915). Put plainly: MTase inhibition assay ([3H]-SAM, GpppAC4 RNA substrate, DEAE filter binding). Type of data set: biochemical. The settings on record: initial screen, compounds at 50 μM, 30 min at 30 °C. As to the method:
as §2, §3, §4, §5, §6, §7, §8, §9, §10, §11

T1 sequence (Q32ZE1 2517-2781): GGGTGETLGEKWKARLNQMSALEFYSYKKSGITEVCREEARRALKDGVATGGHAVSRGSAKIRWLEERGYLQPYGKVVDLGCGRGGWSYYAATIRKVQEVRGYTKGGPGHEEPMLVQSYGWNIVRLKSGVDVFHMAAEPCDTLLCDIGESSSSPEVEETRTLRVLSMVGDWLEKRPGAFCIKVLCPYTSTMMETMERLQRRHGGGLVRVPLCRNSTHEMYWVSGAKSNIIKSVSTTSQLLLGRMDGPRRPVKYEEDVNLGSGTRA
Sequence of DENV NS5-MTase (P27915 2491-2753): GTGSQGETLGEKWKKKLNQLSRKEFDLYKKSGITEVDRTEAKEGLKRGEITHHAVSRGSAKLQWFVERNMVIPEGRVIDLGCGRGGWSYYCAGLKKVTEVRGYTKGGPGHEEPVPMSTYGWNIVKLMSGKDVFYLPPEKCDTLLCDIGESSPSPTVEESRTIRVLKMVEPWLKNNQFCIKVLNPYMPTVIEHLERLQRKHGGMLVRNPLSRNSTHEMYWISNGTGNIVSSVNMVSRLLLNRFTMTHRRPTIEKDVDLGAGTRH

Regarding `CCn1c2ccccc2c2cc(NC(=O)Nc3ccc([N+](=O)[O-])cc3C)ccc21` [Compound 6], in the data set on ZIKV, the EC50 was > 3.99 µM and the “ZIKV EC50” value is reported as “devoid of any antiviral activity”. The compound further came in with a CC50 with host cell of 3.99 µM. In addition, the CC50 in the data set “in vitro [1]” is > 3.99 µM. At ZIKV NS5-MTase, the concentration for half-maximal inhibition (IC50) came to 35 ± 5 µM and the inhibition at 50 µM is > 30%. For the same compound, the IC50 at hRNMT (human N7-MTase) stood at 13.9 ± 0.7 µM.
On to `CCn1c2ccccc2c2cc(NC(=O)Nc3ccc([N+](=O)[O-])cc3Cl)ccc21` [Compound 9a], for which the EC50 with ZIKV is > 50 µM. It took 30.7 µM to reach half-maximal cytotoxicity in the data set “in vitro [1]” (CC50). Also, at ZIKV NS5-MTase, the IC50 amounted to 46 ± 1.1 µM and the inhibition at 50 µM was > 30%. Moreover, on hRNMT (human N7-MTase), the IC50 is ~122 µM.
Take `CCn1c2ccccc2c2cc(NC(=O)Nc3ccc(C#N)cc3)ccc21` [Compound 9b]: the EC50 in the data set on ZIKV is > 10 µM. Further, in the data set “in vitro [1]”, the CC50 is > 10 µM. Also, the 50% inhibitory concentration (IC50) at ZIKV NS5-MTase was ~144 µM; at hRNMT (human N7-MTase) it was ~253 µM.
As for `CCn1c2ccccc2c2cc(NC(=O)Nc3ccc(OC)cc3OC)ccc21` [Compound 9c], in the data set on ZIKV, the EC50 is > 10 µM. For the same compound, in “in vitro [1]”, the CC50 is > 10 µM. This compound came in with an IC50 at hRNMT (human N7-MTase) of 27.4 ± 1.9 µM.
In the case of `CCn1c2ccccc2c2cc(NC(=O)Nc3ccc(I)cc3)ccc21` [Compound 9d], the EC50 with ZIKV was > 50 µM. The CC50 in the data set “in vitro [1]” is > 50 µM. The IC50 at ZIKV NS5-MTase was ~397 µM; on hRNMT (human N7-MTase), 5.3 ± 0.4 µM. For the same compound, at ZIKV NS5-MTase, the inhibition at 50 µM was > 30%.
For `CCn1c2ccccc2c2cc(NC(=O)Nc3ccc(C(F)(F)F)cc3)ccc21` [Compound 9f], the IC50 at hRNMT (human N7-MTase) came out at 6.8 ± 0.5 µM.
In the data set on ZIKV, `CCn1c2ccccc2c2cc(NC(=S)NCc3ccccc3)ccc21` [Compound 11b] had an EC50 of 4.78 µM. In the data set “in vitro [1]”, half-maximal cytotoxicity (CC50) was put at 19.6 µM. The figures for the IC50 at ZIKV NS5-MTase and at hRNMT (human N7-MTase) were 70 ± 1.3 µM and ~112 µM, respectively.
Turning to `CCn1c2ccccc2c2cc(NC(=O)Nc3ccc(N)cc3C)ccc21` [Compound 15], the values for the CC50 in “in vitro [2]” and in “in vitro [1]” were 20 µM and > 12.5 µM, respectively. Moreover, the results for the EC50 in the data set with ZIKV and in the data set on DENV were 1.67 µM and 9.75 µM, respectively. At ZIKV NS5-MTase, this compound showed an inhibition at 50 µM of 25%. Besides, the “inhibition of DENV NS5-MTase” value at DENV NS5-MTase was “did not show any effect”.
In the case of `CCn1c2ccccc2c2cc(NC(=O)C(N)CCCCN)ccc21` (stereo not shown) [Compound 16], the “inhibition of ZIKV NS5-MTase” value at ZIKV NS5-MTase is “barely inhibited”.
`Cc1cc([N+](=O)[O-])ccc1NC(=O)Nc1ccc2c(c1)c1ccccc1n2CCc1ccccc1` [Compound 21b]: the EC50 in the data set with ZIKV amounted to 12.5 µM. Moreover, the “ZIKV CC50” value in the data set on host cell is reported as “showed toxicity”. The compound also had a CC50 in the data set “in vitro [1]” of 20 µM. Besides, on ZIKV NS5-MTase, the IC50 turned out to be 114 ± 1.3 µM and the inhibition at 50 µM is > 30%.
With `O=C(Nc1ccc(I)cc1)Nc1ccc2c(c1)c1ccccc1n2Cc1ccccc1` [Compound 21c], at ZIKV NS5-MTase, the IC50 turned out to be 23 ± 1.2 µM and the inhibition at 50 µM was > 30%.
In the data set with ZIKV, `O=C(Nc1ccc(I)cc1)Nc1ccc2c(c1)c1ccccc1n2CCc1ccccc1` [Compound 21d] came in with an EC50 of 25 µM. Also, in “in vitro [1]”, the CC50 came to 100 µM. Further, on ZIKV NS5-MTase, the “inhibition of ZIKV NS5-MTase” value is given as “poor inhibition”.
`COc1ccc(NC(=O)Nc2ccc3c(c2)c2ccccc2n3Cc2ccccc2)c(OC)c1` [Compound 21e]: the IC50 at ZIKV NS5-MTase is 48 ± 1.3 µM.
Take `COc1ccc(NC(=O)Nc2ccc3c(c2)c2ccccc2n3CCc2ccccc2)c(OC)c1` [Compound 21f]: the EC50 in the data set on ZIKV was > 20 µM. Besides, the “ZIKV CC50” value in the data set on host cell was “showed toxicity”. In “in vitro [1]”, this compound yielded a cytotoxic concentration (CC50) of 20 µM. At ZIKV NS5-MTase, the IC50 was 26 ± 1.2 µM.
The compound `Nc1ncnc2c1ncn2[C@@H]1O[C@H](C[C@@H](N)CC[C@H](N)C(=O)O)[C@@H](O)[C@H]1O` [Sinefungin, reference compound] yielded a 50% inhibitory concentration (IC50) on ZIKV NS5-MTase of 1.18 ± 0.05 µM.
